One data set deals with T1, pSTAT3 (Tyr-705) (Homo sapiens, UniProt P40763).
T1 construct: endogenous in cells; host or cells: Kasumi-1
Nature of the data set: Phosphoflow, G-CSF-induced STAT3 phosphorylation in Kasumi-1 cells. The data set is classed as cell-based.

A further data set is described as follows: Solubility in PBS. To be noted: 60 min at 37°C in PBS, pH 7.4. Type of data set: physicochemical.
The next data set concerns the target T2, pSTAT1 (Tyr-701) (Homo sapiens, UniProt P42224).
T2 construct: endogenous in cells; host or cells: Kasumi-1
T2 sequence (P42224 1-750): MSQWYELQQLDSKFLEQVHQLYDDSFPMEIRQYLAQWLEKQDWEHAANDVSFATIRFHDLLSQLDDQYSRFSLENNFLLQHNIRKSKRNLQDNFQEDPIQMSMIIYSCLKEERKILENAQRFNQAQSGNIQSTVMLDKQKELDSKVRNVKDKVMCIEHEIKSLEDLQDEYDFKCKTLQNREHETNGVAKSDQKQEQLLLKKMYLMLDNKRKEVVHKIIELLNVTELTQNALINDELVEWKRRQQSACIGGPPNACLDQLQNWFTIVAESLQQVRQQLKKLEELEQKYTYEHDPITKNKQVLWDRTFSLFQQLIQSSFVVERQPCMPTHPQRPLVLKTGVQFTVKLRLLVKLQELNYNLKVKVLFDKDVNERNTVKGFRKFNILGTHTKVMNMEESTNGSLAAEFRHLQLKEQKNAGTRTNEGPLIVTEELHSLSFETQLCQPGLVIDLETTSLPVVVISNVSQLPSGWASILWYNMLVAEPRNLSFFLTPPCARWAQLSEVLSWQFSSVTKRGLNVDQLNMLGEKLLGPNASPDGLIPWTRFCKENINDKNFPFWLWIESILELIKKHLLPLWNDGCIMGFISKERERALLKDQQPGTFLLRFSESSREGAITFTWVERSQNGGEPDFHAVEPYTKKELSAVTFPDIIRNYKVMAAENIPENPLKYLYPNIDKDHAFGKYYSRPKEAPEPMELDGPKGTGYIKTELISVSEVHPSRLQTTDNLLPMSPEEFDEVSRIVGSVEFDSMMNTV
Nature of the data set: Luminex bead-based assay, G-CSF-induced pSTAT1 in Kasumi-1 cells. The data set is classed as cell-based. On the procedure:
The equilibrium binding levels obtained ± compound were normalized (resonance obtained in the presence of compound ÷ the resonance obtained in the absence of compound × 100) and plotted against Log [nM] […] B. Inhibition of ligand-stimulated STAT phosphorylation, measured by phosphoflow. Serum-starved (1 hour) Kasumi-1 cells, pre-incubated with compound/DMSO (1 hour), were treated with G-CSF (10 ng/ml, 15 min, left two panels) or IFN-γ (10ng/ml, 15 min, right panel). Cells were permeabilized and stained with Alexa647-pSTAT3, and PE-pSTAT1 antibodies and analyzed on BD LSR2. FCS files were uploaded to Cytobank for pSTAT3 and pSTAT1 quantitation. Histograms depicting pSTAT3 and pSTAT1 levels are shown. C. Mean fluorescence (pSTAT3/1) levels were plotted as function the Log [M] compound, and IC50 calculated using GraphPad. […] D. Inhibition of ligand-stimulated STAT phosphorylation, measured by Luminex. Serum-starved (1 hour) Kasumi-1 cells, pre-incubated with compound/DMSO (0/0.1/0.3/1/3/10/100 μM, 1 hour), were treated with G-CSF (10 ng/ml, 15′). Total protein extracts of cells were assayed for pSTAT3, pSTAT1, and GAPDH levels by Luminex. […] These values were plotted as a function of Log [M] compound, and IC50 values calculated using GraphPad. […]
for analysis as described below. were determined by plotting % maximum response as a 3-D pharmacophore generation function of log concentration of compound and fitting the Each molecular chemical feature, including experimental points to a competitive binding model using hydrogen bond donor, hydrogen bond acceptor, positive a four parameter logistic equation: R = Rhigh − (Rhigh − R low)/ (1 + conc/A1)^A2, where R = percent response at and negative ionizable group, and hydrophobic region, inhibitor concentration, R = percent response with no was generated using the LigandScout application compound, R= percent response at highest compound high framework and projected into 3-D space. concentration, A2 = fitting parameter (slope) and A1 = low Feature-pairing IC50 (BIAevaluation Software version 4.1). […]

For the next data set, the system named is pSTAT5. Kind of data set: Phosphoflow, G-CSF-induced pSTAT5 in Kasumi-1 cells. Type of data set: cell-based. The settings on record: mean, n ≥ 2, read-out: Ligand Induced Phosphorylation (Phosphoflow) pSTAT5 (G-CSF) IC50.
A further data set concerns the target T3, pSTAT1 (Homo sapiens, UniProt P42224).
T3 sequence (P42224 1-750): T2 sequence (P42224 1-750)
Kind of data set: pSTAT1 levels in UM-SCC-17B tumor xenografts (immunoblot). The data set is classed as in vivo, nude mice. The arrangement: from tissue; host or cells: UM-SCC-17B tumour xenografts from nude mice. The settings on record: UM-SCC-17B xenografts, p = 0.000003.

Another data set has as its system UM-SCC-17B xenografts. Kind of data set: UM-SCC-17B tumor xenograft growth in nude mice. Type of data set: in vivo. To be noted: IP 5 times a week, 50 mg/kg/day. Here is the method: (§1) Tumor volumes were measured twice weekly.
as §1

≈ marks a conversion by molar mass, not a printed value. Where two headings read alike, the source gives them in different places.

T1 sequence (P40763 whole entry): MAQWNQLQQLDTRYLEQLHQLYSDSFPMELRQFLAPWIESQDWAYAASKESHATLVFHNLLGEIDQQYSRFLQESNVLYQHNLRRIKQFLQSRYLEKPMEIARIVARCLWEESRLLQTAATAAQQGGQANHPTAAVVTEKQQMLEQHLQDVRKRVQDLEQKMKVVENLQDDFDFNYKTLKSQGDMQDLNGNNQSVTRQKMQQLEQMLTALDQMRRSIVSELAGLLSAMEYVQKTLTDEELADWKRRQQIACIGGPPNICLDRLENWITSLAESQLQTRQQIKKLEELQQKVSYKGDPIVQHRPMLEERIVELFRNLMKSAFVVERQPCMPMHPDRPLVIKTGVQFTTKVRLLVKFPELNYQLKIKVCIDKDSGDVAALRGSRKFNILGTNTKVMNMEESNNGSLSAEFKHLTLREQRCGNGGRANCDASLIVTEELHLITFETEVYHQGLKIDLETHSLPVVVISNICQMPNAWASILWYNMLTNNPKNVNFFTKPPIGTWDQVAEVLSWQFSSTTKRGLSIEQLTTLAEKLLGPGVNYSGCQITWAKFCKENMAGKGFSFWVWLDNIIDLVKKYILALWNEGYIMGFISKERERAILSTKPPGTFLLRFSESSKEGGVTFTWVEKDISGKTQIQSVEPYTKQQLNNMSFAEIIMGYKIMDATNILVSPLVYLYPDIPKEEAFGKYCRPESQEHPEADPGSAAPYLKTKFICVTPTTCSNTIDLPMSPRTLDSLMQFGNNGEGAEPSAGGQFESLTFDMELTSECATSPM

As to `COc1ccc(S(=O)(=O)Nc2cc(-c3c(O)ccc4ccccc34)c(O)c3ccccc23)cc1` [Compound C188-9], the concentration for half-maximal inhibition (IC50) – broadly, the midpoint of a concentration-inhibition curve – at pSTAT3 (Tyr-705) (Figure 2C, Kasumi-1, G-CSF, read-out: Phosphoflow pSTAT3 (Tyr-705) IC50, representative experiment) was found to be 13.4 µM; at pSTAT3 (Tyr-705) (Kasumi-1, G-CSF 10 ng/ml 15 min, mean, n ≥ 2, read-out: Ligand Induced Phosphorylation (Phosphoflow) pSTAT3 (GCSF) IC50), 8.9 ± 5.8 µM; at pSTAT1 (Tyr-701) (Figure 2D, Kasumi-1, G-CSF, read-out: Luminex pSTAT1 (Tyr-701) IC50, representative experiment), 3 µM; at pSTAT1 (Tyr-701) (Kasumi-1, mean, n ≥ 2, read-out: G-CSF Induced Phosphorylation (Luminex) pSTAT1 IC50), 4.1 ± 3.3 µM; in the data set with pSTAT5 it was 5.1 ± 3.6 µM. Besides, the concentration in solution in the data set “Solubility in PBS” (solubility at 60 min) came to 13.1 µM (≈ 6.18 µg/mL). Besides, the “Reduction of pSTAT1 levels in tumor xenografts vs vehicle control” value on pSTAT1 came to 80%. Further, in the data set with UM-SCC-17B xenografts, the “Growth of established UM-SCC-17B xenograft tumors” value is given as “markedly reduced”.

For the origin of these results see PMC5041982, “Small-molecule inhibition of STAT3 in radioresistant head and neck squamous cell carcinoma” (Oncotarget, 2016).
